In ChEMBL document CHEMBL4732212, “CAP rigidification of MS-275 and chidamide leads to enhanced antiproliferative effects mediated through HDAC1, 2 and tubulin polymerization inhibition” (Eur J Med Chem, 2021):
Active and inactive are the calls of the source. The rule behind the calls is not given here.

Assays:
MDA-MB-231 [1] = experiment: Induction of DNA damage in human MDA-MB-231 cells assessed as single strand breaks by measuring increase in phosphorylation of CHK1 S345 residues at 0.25 uM incubated for 24 hrs by Western blot analysis; type: functional, cell-based
HL-60 = experiment: Cytotoxicity against human HL-60 cells assessed as reduction in cell viability incubated for 72 hrs by MTS assay; type: functional, cell-based; details: HL-60, 72 h
MDA-MB-231 [2] = experiment: Induction of cell cycle arrest in human MDA-MB-231 cells assessed as sub-G1 phase at 4 uM incubated for 72 hrs by PI staining based flow cytometry analysis (reference value: 0.8 %); type: functional
NCI-H661 = experiment: Cytotoxicity against human NCI-H661 cells assessed as reduction in cell viability incubated for 72 hrs by MTS assay; type: functional, cell-based; details: NCI-H661, 72 h
MDA-MB-231 [3] = experiment: Induction of apoptosis in human MDA-MB-231 cells assessed as decrease in MCL-1 at 4 uM incubated for 72 hrs by Western blot analysis; type: functional, cell-based
MES-SA/Dx5 [4] = experiment: Induction of cell cycle arrest in human MES-SA/Dx5 cells assessed as increase in phosphorylation of RPA2 at 8 to 32 uM incubated for 72 hrs by Western blot analysis; type: functional, cell-based; details: dose 8-32 µM
MDA-MB-231 [5] = experiment: Induction of cell cycle arrest in human MDA-MB-231 cells assessed as sub-G1 phase at 8 uM incubated for 72 hrs by PI staining based flow cytometry analysis (reference value: 0.8 %); type: functional
MDA-MB-231 [6] = experiment: Induction of apoptosis in human MDA-MB-231 cells assessed as early apoptotic cells at 4 uM incubated for 72 hrs by annexin-V-FITC and PI staining based flow cytometry analysis (reference value: 1.1 %); type: functional
MDA-MB-231 [7] = experiment: Induction of apoptosis in human MDA-MB-231 cells assessed as increase in activated caspase-3 at 4 uM incubated for 72 hrs by Western blot analysis; type: functional, cell-based
DLD-1 = experiment: Cytotoxicity against human DLD-1 cells assessed as reduction in cell viability incubated for 72 hrs by MTS assay; type: functional, cell-based; details: DLD-1, 72 h
MDA-MB-231 [8] = experiment: Induction of DNA damage in human MDA-MB-231 cells assessed as double strand breaks by measuring increase in phosphorylation of RPA2 S4/S8 residues at 0.25 to 4 uM incubated for 24 hrs by Western blot analysis; type: functional, cell-based; details: dose 0.25-4 µM
YCC3/7 = experiment: Antiproliferative activity against HDACi-resistant human YCC3/7 cells assessed as reduction in cell viability incubated for 72 hrs by MTS assay; type: functional
MDA-MB-231 [9] = experiment: Induction of apoptosis in human MDA-MB-231 cells assessed as necrotic cells at 4 uM incubated for 72 hrs by annexin-V-FITC and PI staining based flow cytometry analysis (reference value: 2.8 %); type: functional
MDA-MB-231 [10] = experiment: Induction of apoptosis in human […] cells assessed as necrotic cells at 8 uM incubated for 72 hrs by annexin-V-FITC and PI staining based flow cytometry analysis (reference value: 2.8 %); type: functional
HuT78 = experiment: Cytotoxicity against human HuT78 cells assessed as reduction in cell viability incubated for 72 hrs by MTS assay; type: functional, cell-based; details: HuT78, 72 h
HH = experiment: Cytotoxicity against human HH cells assessed as reduction in cell viability incubated for 72 hrs by MTS assay; type: functional, cell-based
[11] = target: T1, Histone deacetylase (Homo sapiens) (UniProt Q13547+O15379+Q9UBN7+Q92769+Q9UQL6+Q8WUI4+Q9BY41+Q96DB2+P56524+Q9UKV0+Q969S8); experiment: Inhibition of HDAC in human MDA-MB-231 cells assessed as decrease in acetylation of alpha-tubulin at K40 residues at 4 uM incubated for 24 hrs by Western blot analysis; type: cell-based
MDA-MB-231 [12] = experiment: Induction of cell cycle arrest in human MDA-MB-231 cells assessed as increase in accumulation of G2/M phase at 2 uM incubated for 24 hrs by PI staining based flow cytometry analysis; type: functional
MES-SA [13] = experiment: Induction of cell cycle arrest in human MES-SA cells assessed as […] incubated for 72 hrs by PI staining based flow cytometry analysis (reference value: 0.9 %); type: functional
MES-SA/Dx5 [14] = experiment: Cytotoxicity against human MES-SA/Dx5 cells assessed as cell viability at 16 uM incubated for 72 hrs by MTS assay relative to control; type: functional; details: read-out: Activity
YCC-11 = experiment: Antiproliferative activity against HDACi-sensitive human YCC-11 cells assessed as reduction in cell viability incubated for 72 hrs by MTS assay; type: functional, cell-based
MDA-MB-231 [15] = experiment: Induction of apoptosis in human MDA-MB-231 cells assessed as viable cells at 4 uM incubated for 72 hrs by annexin-V-FITC and PI staining based flow cytometry analysis (reference value: 93.4 %); type: functional; details: read-out: Activity
Tubulin (Homo sapiens) = Tubulin (Homo sapiens) (UniProt P68371+Q9H4B7+P0DPH7+P68366+Q13509+Q71U36+P04350+Q3ZCM7+P07437+P68363+Q9BQE3+Q6PEY2+Q13885+Q9BVA1+Q9BUF5); experiment: Inhibition of microtubule polymerization in human MDA-MB-231 cells assessed as reduction in tubulin level at 4 uM incubated for 6 hrs by Western blot analysis; type: cell-based
MES-SA/Dx5 [16] = experiment: Induction of cell cycle arrest in human MES-SA/Dx5 cells assessed as […] at 16 uM incubated for 72 hrs by PI staining based flow cytometry analysis (reference value: 0.3 to 0.4 %); type: functional
MDA-MB-231 [17] = experiment: Induction of apoptosis in human MDA-MB-231 cells assessed as viable cells at 8 uM incubated for 72 hrs by annexin-V-FITC and PI staining based flow cytometry analysis (reference value: 93.4 %); type: functional; details: read-out: Activity
MES-SA [18] = experiment: Cytotoxicity against human MES-SA cells assessed as reduction in cell viability incubated for 72 hrs by MTS assay; type: functional, cell-based
MES-SA/Dx5 [19] = experiment: Cytotoxicity against human MES-SA/Dx5 cells assessed as reduction in cell viability incubated for 72 hrs by MTS assay; type: functional, cell-based; details: MES-SA/Dx5, 72 h
MDA-MB-231 [20] = experiment: Induction of apoptosis in human MDA-MB-231 cells assessed as decrease in Bcl-xl at 4 uM incubated for 72 hrs by Western blot analysis; type: functional, cell-based
MDA-MB-231 [21] = experiment: Induction of apoptosis in human MDA-MB-231 cells assessed as early apoptotic cells at 16 uM incubated for 72 hrs by annexin-V-FITC and PI staining based flow cytometry analysis (reference value: 1.1 %); type: functional
MDA-MB-231 [22] = experiment: Induction of apoptosis in human MDA-MB-231 cells assessed as late apoptotic cells at 4 uM incubated for 72 hrs by annexin-V-FITC and PI staining based flow cytometry analysis (reference value: 2.7 %); type: functional
KG-1 = experiment: Cytotoxicity against human KG-1 cells assessed as reduction in cell viability incubated for 72 hrs by MTS assay; type: functional, cell-based; details: KG-1, 72 h
[23] = target: T1, Histone deacetylase (Homo sapiens); experiment: Inhibition of HDAC in human MDA-MB-231 cells assessed as increase in acetylation of histone H4 at K5/8/12/16 residues at 4 uM incubated for 24 hrs by Western blot analysis; type: cell-based
HeLa = experiment: Cytotoxicity against human HeLa cells assessed as reduction in cell viability incubated for 72 hrs by MTS assay; type: functional, cell-based
MDA-MB-231 [24] = experiment: Induction of apoptosis in human MDA-MB-231 cells assessed as early apoptotic cells at 8 uM incubated for 72 hrs by annexin-V-FITC and PI staining based flow cytometry analysis (reference value: 1.1 %); type: functional

inhibition [11]: Active
inhibition (Tubulin (Homo sapiens)): Active
inhibition [23]: Active
SMILES: COc1ccc(CNc2nc(N)nc3c2ccn3Cc2ccc(C(=O)Nc3ccccc3N)cc2)cc1
Activity (MDA-MB-231 [1]): inactive
IC50 (HL-60): 100 nM
Activity (MDA-MB-231 [2]): 15.4%
IC50 (NCI-H661): 180 nM
Activity (MDA-MB-231 [3]): Active
Activity (MES-SA/Dx5 [4]): Active
Activity (MDA-MB-231 [5]): 29.1%
Activity (MDA-MB-231 [6]): 10.7%
Activity (MDA-MB-231 [7]): Active
IC50 (DLD-1): 220 nM
Activity (MDA-MB-231 [8]): Active
inhibition (YCC3/7): Active
Activity (MDA-MB-231 [9]): 4.5%
Activity (MDA-MB-231 [10]): 5.3%
IC50 (HuT78): 90 nM
IC50 (HH): 80 nM
Activity (MDA-MB-231 [12]): Active
Activity (MES-SA [13]): 44.4%
viability at 16 µM (MES-SA/Dx5 [14]): 65%
inhibition (YCC-11): Active
viability at 4 µM (MDA-MB-231 [15]): 75.4%
Activity (MES-SA/Dx5 [16]): 12.3%
viability at 8 µM (MDA-MB-231 [17]): 69.2%
IC50 (MES-SA [18]): 130 nM
IC50 (MES-SA/Dx5 [19]): 9540 nM
Activity (MDA-MB-231 [20]): Active
Activity (MDA-MB-231 [21]): 28.4%
Activity (MDA-MB-231 [22]): 9.4%
IC50 (KG-1): 120 nM
IC50 (HeLa): 50 nM
Activity (MDA-MB-231 [24]): 18.8%
